Consider two molecules from US6767705B2, “Reagents and methods for identifying and modulating expression of genes regulated by retinoids” (The Board of Trustees of the University of Illinois, priority 2000, dated 2004).

Assay [1] has as its system MCF-7 cells. Nature of the assay: Clonogenic assay (colony formation / plating efficiency) of MCF-7 cells after RA treatment. The class given is cell-based, human. As for the experimental part:
FIGS. 1A and 1B are graphs showing the effects of retinoic acid (RA) on colony formation by MCF-7 cells. In each assay, 1.5×10^5 cells were plated per P100, in the absence or in the presence of RA. For clonogenic assays, cells were trypsinized after treatment, and 2,500 cells were plated per P100 and grown in drug-free media. […] Each point represents the mean and standard deviation for triplicate assays.
Clonogenic assays were performed to analyze the differences in proliferative capacity in MCF-7 cells after treatment with 100 nM RA for varying times. Cells were exposed to 100 nM RA for 1-7 days and tested for their capacity to form colonies after treatment at each time point. […] The decrease was initially rapid (from 100% to 40% plating efficiency after 2 days incubation with RA) and decreased more slowly to a final plating efficiency of about 10% at day 7.

Assay [2] deals with MCF-7 cells. Put plainly: cDNA microarray hybridization (Human UniGEM V) of RA-treated vs untreated MCF-7 cells. The class given is cell-based. The conditions noted are these: 100 nM RA, 5 days. As for the experimental part:
To study gene expression changes, poly(A)+ RNA was isolated from untreated MCF-7 cells and from cells treated for 5 days with 100 nM RA. cDNA was prepared from these RNA populations and the cDNA hybridized with a cDNA microarray (Human UniGEM V cDNA microarray, Incyte Genomics, St. Louis, Mo.) that contains >7,000 cDNAs of different human genes and ESTs. cDNA probe synthesis, hybridization with the microarray and signal analyses were conducted by IncyteGenomics as a commercial service.

Assay [3] has as its system MCF-7 cells. Nature of the assay: RT-PCR analysis of expression of retinoid-inducible genes in MCF-7 cells. The assay is classed as cell-based, human. Here is the method: FIGS. 2A through 2C show the results of RT-PCR analysis of changes in the expression of retinoid-inducible genes as described in Example 1. The identity of each gene is followed by the NCBI Accession Number (in parentheses). […] The designations “R5” and “R8” correspond to days 5 and 8 after release from 5-day RA treatment, respectively.
RT-PCR analysis was carried out essentially as described (Noonan et al., 1990, Proc. Natl. Acad. Sci. USA 87: 7160-7164), using β-actin as an internal normalization standard.

The test system of assay [4] is MCF-7 cells. Nature of the assay: Immunocytochemical and immunoblotting analysis of IGFBP-3, HIF2α/EPAS-1 and EPLIN proteins in MCF-7 cells. The conditions noted are these: 100 nM RA for 5 days, MCF-7 cells (FIG. 3A, 3B). The assay is classed as cell-based, human. As for the experimental part:
FIG. 3A is a photomicrograph and FIG. 3B is a photograph of an immunoblot showing induction of IGFBP-3, HIF2α/EPAS-1 and EPLIN proteins in RA-treated cells.
Induction of three genes in this group was tested and confirmed at the protein level, by immunocytochemical assays, shown in FIG. 3A, using rabbit polyclonal antibody against EPLIN (a gift of Dr. David Chang, UCLA), and goat polyclonal antibodies against IGFBP-3 and EPAS-1/HIF-2α (Santa Cruz Biotechnology, Inc., Santa Cruz, Calif.) and standard techniques. Antibody staining was detected using Vectastain kit (Vector Labs, Burlingame, Calif.) according to the manufacturer's instructions.
The EPLIN gene encodes two protein isoforms. EPLINα and EPLINβ, with the larger (β) isoform showing a stronger growth-inhibitory effect. The observed induction of EPLIN gene expression was confirmed by immunocytochemical and immunoblotting assays (results shown in FIGS. 3A and 3B). These assays were performed using rabbit polyclonal antibody against EPLIN (a gift of Dr. David Chang, UCLA) and were carried out by standard techniques. Antibody staining was detected using Vectastain kit (Vector Labs) for immunocytochemistry and horseradish peroxidase-conjugated goat anti-rabbit IgG (Santa Cruz) for immunobloting.
In general terms: In western blotting, separated proteins are transferred to a membrane and probed.

Assay [5] has as its system MCF-7 human breast carcinoma cells. The conditions noted are these: cited from earlier work.
A further assay relates to p21. As to conditions: retinoic acid-induced growth inhibition in MCF-7 cells; cited from earlier work.
Assay [6] has as its system xenografts of MCF-10T neo mammary epithelial cells. The conditions noted are these: xenografts in vivo after treatment with fenretinide; cited from earlier work.
The mark [7] stands for this setting: 100 nM RA, MCF-7 cells (FIG. 2A).

As for `CC1=C(/C=C/C(C)=C/C=C/C(C)=C/C(=O)O)C(C)(C)CCC1` [RA, all-trans retinoic acid], the “plating efficiency, normalized to untreated control” value in the assay with MCF-7 cells [1] (100 nM RA, after 2 days incubation, MCF-7 cells (FIG. 1A)) is on record as 40%. For the same molecule, in the assay with MCF-7 cells [1] (100 nM RA, day 7, MCF-7 cells (FIG. 1A)), the “final plating efficiency, normalized to untreated control” value is recorded as “about 10%”. The “plating efficiency at varying concentrations of RA” value with MCF-7 cells [1] (40 hr treatment, indicated doses, lowest 10 nM, MCF-7 cells (FIG. 1B)) is given as “dose-dependent reduction in plating efficiency at all tested doses (as low as 10 nM)”. For the same molecule, in the assay on MCF-7 cells [2], the “decrease in balanced differential expression, 20 genes” value was 1.7-3.0 fold; the “increase in balanced differential expression, 27 genes” value was 1.4-2.5 fold; the “maximum decrease in relative hybridization intensity of any gene in the microarray” value was at most 3 fold; the “maximum increase in relative hybridization intensity of any gene in the microarray” value is at most 2.5 fold. Besides, in the assay on MCF-7 cells [3] (setting [7]), the “time course of changes in RNA levels of the 13 genes” value was “many of them increased their expression between days 1 and 4 of RA treatment”; the “time to maximum expression of RNF” value is recorded as “maximum expression after just one day of treatment”. Besides, in the assay on MCF-7 cells [3] (40 hr treatment, lowest dose 10 nM, MCF-7 cells (FIG. 2B)), the “RA dose-dependence of gene expression of the 13 genes” value is “almost all of these genes were induced even by the lowest (10 nM) dose”. In the assay on MCF-7 cells [3] (RA-treated MCF-7 cells, printed as '5-10 fold or more' (FIGS. 2A, 2B)), the “induction of 13 upregulated genes by RT-PCR” value is 5-10 fold. Moreover, in the assay with MCF-7 cells [4], the “expression of IGFBP-3, EPAS-1/HIF2α and EPLIN proteins” value is “increased expression of the corresponding proteins”. Besides, in assay [5] (low dose RA (between 10-100 nM), MCF-7 cells), the “continuous exposure required for the growth arrest effect to become apparent” value was 4 to 6 days. Also, the “growth arrest and cell death in MCF-7 cells” value in assay [5] (relatively low doses of RA (between 10-100 nM)) is “induce irreversible growth arrest in MCF-7 cells, while producing only a minor reduction in cell numbers caused by cell death”. In addition, in the assay on p21, the “induction of p21” value is recorded as “does not induce p21”.
Consider `CC1=C(/C=C/C(C)=C/C=C/C(C)=C/C(=O)Nc2ccc(O)cc2)C(C)(C)CCC1` [fenretinide, 4-hydroxyphenylretinamide], for which, in the assay with MCF-7 cells [3] (1 μM fenretinide, MCF-7 cells (FIG. 2C)), the “induction of the 13 genes” value is “All 13 genes were also induced”. Besides, the “induction of senescence-associated marker SA-β-gal” value in assay [6] is “Induction of SA-β-gal was also observed”.
